Legend:
[1] = test system: mice with combined leptin and LDL-receptor deficiency (double knockout [DKO] mice); assay: Blood analyses (glucose, insulin, lipids, HOMA, adiponectin) in obese, dyslipidemic and diabetic DKO mice; format: in vivo, mouse
Text: We measured the effect of stevioside on weight, blood variables (e.g. glucose, insulin, lipids), PPAR expression in adipose tissues, and on atherosclerosis in mice with combined leptin and LDL-receptor deficiency (double knockout [DKO] mice).
Homozygous LDL-receptor-knockout mice (LDLR^(−/−)), heterozygous ob/+, and C57BL6 mice were purchased from Jackson Laboratory, Bar Harbor, Me. LDLR^(−/−) mice were backcrossed into a C57BL6 background to the 10th generation. To obtain DKO mice with combined leptin deficiency (ob/ob) and LDL-receptor deficiency, LDLR^(−/−) and ob/+ mice were crossed. All offspring were genotyped by polymerase chain reaction (PCR) techniques. All mice were housed at 22° C. on a fixed 12/12-hour light/dark cycle. Experimental procedures in animals were performed in accordance with protocols approved by the Institutional Animal Care and Research Advisory Committee. All mice were fed standard chow containing 4% fat (Pavan Service). Food intake was ≈5.7 g/d. Mice (about 50 g) were treated with stevioside (N=14; 10 mg/kg), steviol (N=9; 5 mg/kg) or placebo (N=17) for 12 weeks between 12 and 24 weeks of age. Stevioside (Molecular weight: 804) was dissolved in water (1 mg/ml) and 500 μl of the solution was administered orally. Steviol (Molecular weight: 318) was dissolved in water containing 6% NaHCO3 (1 mg/ml) and 250 μl of the solution was administered orally.
Blood of conscious mice was collected by tail bleeding into EDTA tubes after an overnight fast. Plasma was obtained by centrifugation. Plasma cholesterol and triglycerides were measured by means of standard enzymatic colorimetric assays (Boehringer Mannheim), plasma fatty acids (FFA) by means of the FFA-Half Microtest kit (Roche Applied Science), glucose by means of a glucometer (Menarini Diagnostics), plasma insulin and adiponectin by means ELISAs (Mercodia and R&D, respectively). Insulin resistance was calculated by a homeostasis model assessment (HOMA)=fasting serum insulin (mU/L) times fasting blood glucose (mmol/L)/22.5.

[2] = Analysis of steviol metabolites in 24 h human urine after oral stevioside; format: in vivo
Method: Urine Fractionation and Derivatisation of steviol containing fractions. The total 24 h urine fraction (between 1124 and 2494 mL) form human subject subjected to a steviol treatment (three days of oral stevioside administration (750 mg per day)) was run over an Amberlite XAD-2 column at about 30 mL/min. The column bed volume was 200 mL which is sufficient for the adsorption of all amphipathic molecules in 24 h urine. The columns were then rinsed with 1 L of distilled water and then eluted with 400 mL MeOH:Acetone (50:50, v/v). The eluate was divided into 4 equal fractions and the solvent was evaporated at reduced pressure at 50° C.
Fractions containing steviol and/or dihydroisosteviol used as internal standard were completely dried; the residues were taken up in dry acetone and derivatized to form the 7-methoxy-coumarinyl esters as described (Minne, V. et al. J. Agr. Food Chem., 2004, 52, 2445-2449). […] After evaporation of the solvent, the residue was dissolved in a known amount of MeOH and HPLC was done using a fluorescence detector (λexc.: 321 nm, λem.: 391 nm) (Minne, V. et al. J. Agr. Food Chem., 2004, 52, 2445-2449). […]
Isolation of larger amounts of steviol glucuronide. […] Samples of each fraction were analysed by TLC using ethyl acetate:ethanol:water (80:30:20) as solvent and compared with steviol glucuronide as a reference compound. […]

[3] = stevioside 10 mg/kg or steviol 5 mg/kg orally, 12 weeks, compared with placebo mice
[4] = stevioside 10 mg/kg orally, 12 weeks, compared to baseline levels

- free steviol in urine ([2]; after oral stevioside, human urine): no free steviol can be detected
Compound: C=C1C[C@@]23CC[C@H]4C(C)(CCC[C@@]4(C)C(=O)O[C@@H]4O[C@H](CO)C(O)[C@H](O)C4O)[C@@H]2CCC1(OC1O[C@H](CO)C(O)C(O)C1OC1O[C@H](CO)C(O)[C@H](O)C1O)C3 (stereo in doubt) [stevioside, Kaur-16-en-18-oic acid, 13-[(2-O-b-D-glucopyranosyl-b-D-glucopyranosyl)oxy]-, b-D-glucopyranosyl ester, (4a)-]
- plasma concentration of adiponectin ([1]; after 12 weeks of treatment, before treatment 4729±1652, P=0.003): 6517 ± 1472 ng/mL
- FFA level [1, 3]: significantly lower
- HOMA values (insulin resistance) [1, 3]: significantly lower
- cholesterol level [1, 3]: significantly lower
- glucose level [1, 3]: significantly lower
- insulin level [1, 3]: significantly lower
- triglyceride level [1, 3]: significantly lower
- FFA [1, 4]: reduced
- cholesterol [1, 4]: reduced
- glucose [1, 4]: reduced
- insulin [1, 4]: reduced
- triglycerides [1, 4]: reduced
- insulin sensitivity ([1]; stevioside 10 mg/kg orally, 12 weeks, result of the decrease in glucose and insulin): increase
- metabolite detected in the collected urine ([2]; three days of oral stevioside (750 mg per day), 24 h urine): steviol glucuronide was isolated as the only metabolite detected

Reference: patent publication US20100099640A1, “TISSUE DEGENERATION PROTECTION” (priority 2007, published 2010)
